{"source": "patent US10766902B2", "about": "“Wee-1 inhibiting pyrazolopyrimidinone compounds” (ALMAC DISCOVERY LIMITED, priority 2016, dated 2020)", "note": "pIC50: −log10 of the molar value."}
{"target": "Wee-1 kinase (Homo sapiens (Human), UniProt P30291)", "sequence (P30291 whole entry)": "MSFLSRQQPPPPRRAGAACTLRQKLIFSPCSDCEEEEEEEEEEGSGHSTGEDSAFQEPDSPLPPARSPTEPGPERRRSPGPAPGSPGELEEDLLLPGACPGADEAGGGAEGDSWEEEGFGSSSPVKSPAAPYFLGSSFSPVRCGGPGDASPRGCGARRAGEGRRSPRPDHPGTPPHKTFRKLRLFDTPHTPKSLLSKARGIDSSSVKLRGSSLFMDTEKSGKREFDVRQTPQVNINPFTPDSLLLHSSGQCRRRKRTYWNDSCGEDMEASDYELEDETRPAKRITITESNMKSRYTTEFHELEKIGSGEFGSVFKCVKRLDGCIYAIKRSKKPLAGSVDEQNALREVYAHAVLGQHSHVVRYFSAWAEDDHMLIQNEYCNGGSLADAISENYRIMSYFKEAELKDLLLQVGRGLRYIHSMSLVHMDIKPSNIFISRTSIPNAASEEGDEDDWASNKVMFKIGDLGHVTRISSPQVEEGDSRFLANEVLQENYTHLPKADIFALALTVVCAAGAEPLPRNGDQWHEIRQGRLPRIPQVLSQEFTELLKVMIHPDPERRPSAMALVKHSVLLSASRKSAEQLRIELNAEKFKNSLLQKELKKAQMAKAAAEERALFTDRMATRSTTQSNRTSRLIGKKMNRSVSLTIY", "assay": "Measurement of Wee-1 kinase activity (ADP-Glo luminescence)", "format": "biochemical", "conditions": "read-out: Wee1 IC50", "protocol": "Method 1: Measurement of Wee-1 Kinase Activity\nIn the measurement of Wee-1 activity, a commercial peptide Poly(Lys Tyr(4:1)) hydrobromide was purchased from Sigma Aldrich and used as the substrate. Activated Wee-1 kinase was purchased from Invitrogen (PV3817) and an ADP-Glo luminescent kit was purchased from Promega.\nAll reactions took place in […] volumes in reaction buffer containing 40 mM Tris-HCl and 20 mM magnesium chloride, supplemented with 0.1 mg/mL bovine serum albumin and 2 mM DTT. Compounds were serially diluted in buffer and 5 μL of each concentration pipetted into a white 384 well plate (Sigma Aldrich M6186). A 5 μL aliquot of the Wee-1 enzyme was added to each well and the plate centrifuged for 1 min to ensure mixing of the enzyme and inhibitor.\nThe plate was incubated at room temperature for 30 minutes before the addition of 2.0 μg/mL of substrate and 30 μM ATP in a 5 μL aliquot. The plate was centrifuged for one minute and incubated for 1 h at RT.\n15 μL of ADP-Glo stop reagent was added to each well to quench the reaction and deplete unconverted ATP. The plate was incubated for a further 40 min in the dark at RT.\n30 μL of ADP-Glo kinase detection reagent was added to each well, converting ADP to ATP, catalysing the generation of luciferin by luciferase. The plate was shaken for 1 min, and incubated in the dark for an additional hour.\nLuminescence from each well was detected using the Biotek Synergy4 HD plate reader and the percentage inhibition of kinase activity calculated for each inhibitor tested. Positive (kinase only) and negative (no kinase) controls were added to each plate to ensure specific interaction of kinase and inhibitor. The IC50 concentration for each inhibitor was calculated by plotting the percentage kinase inhibition against concentration of inhibitor and the curve generated by non-linear regression fitting."}
{"smiles": "C=CCn1c(=O)c2cnc(Nc3ccc(N4C[C@@H](C)O[C@@H](C)C4)cc3)nc2n1-c1cccc(N=S(C)(C)=O)n1", "note": "[Example 32, 1-(6-{[Dimethyl(oxo)-λ^6-sulfanylidene]amino}pyridin-2-yl)-6-{4-([(2S,6R)-2,6-dimethylmorpholin-4-yl]phenyl)amino}-2-(prop-2-en-1-yl)-1H,2H,3H-pyrazolo[3,4-d]pyrimidin-3-one]", "pIC50": 9.30}
{"smiles": "C=CCn1c(=O)c2cnc(Nc3ccc(N4CCC(F)(F)CC4)cc3)nc2n1-c1cccc(N=S(C)(C)=O)n1", "note": "[Example 34, 1-(6-{[Dimethyl(oxo)-λ^6-sulfanylidene]amino}pyridin-2-yl)-6-{[4-(4,4-difluoropiperidin-1-yl)phenyl]amino}-2-(prop-2-en-1-yl)-1H,2H,3H-pyrazolo[3,4-d]pyrimidin-3-one]", "pIC50": 8.34}
{"smiles": "C=CCn1c(=O)c2cnc(Nc3cccc(N4CCOCC4)c3)nc2n1-c1cccc(N=S(C)(C)=O)n1", "note": "[Example 35, 1-(6-{[Dimethyl(oxo)-λ^6-sulfanylidene]amino}pyridin-2-yl)-6-{[3-(morpholin-4-yl)phenyl]amino}-2-(prop-2-en-1-yl)-1H,2H,3H-pyrazolo[3,4-d]pyrimidin-3-one]", "pIC50": 9.22}
{"smiles": "C=CCn1c(=O)c2cnc(Nc3ccc(N4CC5CCC(C4)O5)cc3)nc2n1-c1cccc(N=S(C)(C)=O)n1", "note": "[Example 36, 1-(6-{[Dimethyl(oxo)-λ^6-sulfanylidene]amino}pyridin-2-yl)-6-{[4-(8-oxa-3-azabicyclo[3.2.1]octan-3-yl)phenyl]amino}-2-(prop-2-en-1-yl)-1H,2H,3H-pyrazolo[3,4-d]pyrimidin-3-one]", "pIC50": 10.00}
{"smiles": "C=CCn1c(=O)c2cnc(Nc3cnn(C)c3)nc2n1-c1cccc(N=S(C)(C)=O)n1", "note": "[Example 37, 1-(6-{[Dimethyl(oxo)-λ^6-sulfanylidene]amino}pyridin-2-yl)-6-[(1-methyl-1H-pyrazol-4-yl)amino]-2-(prop-2-en-1-yl)-1H,2H,3H-pyrazolo[3,4-d]pyrimidin-3-one]", "pIC50": 8.89}
{"smiles": "CCCn1c(=O)c2cnc(Nc3ccc(N4CCOCC4)cc3)nc2n1-c1cccc(N=S(C)(C)=O)n1", "note": "[Example 38, 1-(6-{[Dimethyl(oxo)-λ^6-sulfanylidene]amino}pyridin-2-yl)-6-{[4-(morpholin-4-yl)phenyl]amino}-2-propyl-1H,2H,3H-pyrazolo[3,4-d]pyrimidin-3-one]", "pIC50": 9.10}
{"smiles": "CCCn1c(=O)c2cnc(Nc3ccc(N4CCOCC4)nc3)nc2n1-c1cccc(N=S(C)(C)=O)n1", "note": "[Example 39, 1-(6-{[Dimethyl(oxo)-λ^6-sulfanylidene]amino}pyridin-2-yl)-6-{[6-(morpholin-4-yl)pyridin-3-yl]amino}-2-propyl-1H,2H,3H-pyrazolo[3,4-d]pyrimidin-3-one]", "pIC50": 8.77}
{"smiles": "C=CCn1c(=O)c2cnc(Nc3ccc(F)cc3)nc2n1-c1cccc(N=S(C)(C)=O)n1", "note": "[Example 40, 1-(6-{[Dimethyl(oxo)-λ^6-sulfanylidene]amino}pyridin-2-yl)-6-[(4-fluorophenyl)amino]-2-(prop-2-en-1-yl)-1H,2H,3H-pyrazolo[3,4-d]pyrimidin-3-one]", "pIC50": 9.70}
{"smiles": "CC(C)n1c(=O)c2cnc(Nc3ccc(F)cc3)nc2n1-c1cccc(N=S(C)(C)=O)n1", "note": "[Example 41, 1-(6-{[Dimethyl(oxo)-λ^6-sulfanylidene]amino}pyridin-2-yl)-6-[(4-fluorophenyl)amino]-2-(propan-2-yl)-1H,2H,3H-pyrazolo[3,4-d]pyrimidin-3-one]", "pIC50": 8.31}
{"smiles": "COc1ccc(Nc2ncc3c(=O)n(C(C)C)n(-c4cccc(N=S(C)(C)=O)n4)c3n2)cc1", "note": "[Example 42, 1-(6-{[Dimethyl(oxo)-λ^6-sulfanylidene]amino}pyridin-2-yl)-6-[(4-methoxyphenyl)amino]-2-(propan-2-yl)-1H,2H,3H-pyrazolo[3,4-d]pyrimidin-3-one]", "pIC50": 8.96}
{"smiles": "CC(C)n1c(=O)c2cnc(Nc3ccc(N4CCOCC4)cc3)nc2n1-c1cccc(N=S(C)(C)=O)n1", "note": "[Example 43, 1-(6-{[Dimethyl(oxo)-λ^6-sulfanylidene]amino}pyridin-2-yl)-6-{[4-(morpholin-4-yl)phenyl]amino}-2-(propan-2-yl)-1H,2H,3H-pyrazolo[3,4-d]pyrimidin-3-one]", "pIC50": 9.40}
{"smiles": "C=CCn1c(=O)c2cnc(Nc3ccc(N4CCOCC4)cc3)nc2n1-c1cncc(N=S(C)(C)=O)c1", "note": "[Example 44, 1-(5-{[Dimethyl(oxo)-λ^6-sulfanylidene]amino}pyridin-3-yl)-6-{[4-(morpholin-4-yl)phenyl]amino}-2-(prop-2-en-1-yl)-1H,2H,3H-pyrazolo[3,4-d]pyrimidin-3-one]", "pIC50": 7.69}
{"smiles": "CC(C)n1c(=O)c2cnc(Nc3ccc(N4CCCNCC4)cc3)nc2n1-c1cccc(N=S(C)(C)=O)n1", "note": "[Example 46, 6-{[4-(1,4-Diazepan-1-yl)phenyl]amino}-1-(6-{[dimethyl(oxo)-λ^6-sulfanylidene]amino}pyridin-2-yl)-2-(propan-2-yl)-1H,2H,3H-pyrazolo[3,4-d]pyrimidin-3-one]", "pIC50": 9.05}
{"smiles": "CC(C)n1c(=O)c2cnc(NC3CCC3)nc2n1-c1cccc(N=S(C)(C)=O)n1", "note": "[Example 47, 6-(Cyclobutylamino)-1-(6-{[dimethyl(oxo)-λ^6-sulfanylidene]amino}pyridin-2-yl)-2-(propan-2-yl)-1H,2H,3H-pyrazolo[3,4-d]pyrimidin-3-one]", "pIC50": 7.17}
{"smiles": "CC(C)n1c(=O)c2cnc(Nc3ccc(N4CCNC(=O)C4)cc3)nc2n1-c1cccc(N=S(C)(C)=O)n1", "note": "[Example 48, 4-(4-{[1-(6-{[Dimethyl(oxo)-λ^6-sulfanylidene]amino}pyridin-2-yl)-3-oxo-2-(propan-2-yl)-1H,2H,3H-pyrazolo[3,4-d]pyrimidin-6-yl]amino}phenyl)piperazin-2-one]", "pIC50": 9.05}
{"smiles": "CC(C)n1c(=O)c2cnc(Nc3ccc(N4CCN(CC(F)(F)F)CC4)cc3)nc2n1-c1cccc(N=S(C)(C)=O)n1", "note": "[Example 50, 1-(6-{[Dimethyl(oxo)-λ^6-sulfanylidene]amino}pyridin-2-yl)-2-(propan-2-yl)-6-({4-[4-(2,2,2-trifluoroethyl)piperazin-1-yl]phenyl}amino)-1H,2H,3H-pyrazolo[3,4-d]pyrimidin-3-one]", "pIC50": 9.40}
{"smiles": "C=CCn1c(=O)c2cnc(Nc3ccc(N4CCOCC4)cc3)nc2n1-c1cncc(N=S(C)(C)=O)n1", "note": "[Example 51, 1-(6-{[Dimethyl(oxo)-λ^6-sulfanylidene]amino}pyrazin-2-yl)-6-{[4-(morpholin-4-yl)phenyl]amino}-2-(prop-2-en-1-yl)-1H,2H,3H-pyrazolo[3,4-d]pyrimidin-3-one]", "pIC50": 9.22}
{"smiles": "C=CCn1c(=O)c2cnc(Nc3ccc(N4CCOCC4)cc3)nc2n1-c1nccc(N=S(C)(C)=O)n1", "note": "[Example 52, 1-(4-{[Dimethyl(oxo)-λ^6-sulfanylidene]amino}pyrimidin-2-yl)-6-{[4-(morpholin-4-yl)phenyl]amino}-2-(prop-2-en-1-yl)-1H,2H,3H-pyrazolo[3,4-d]pyrimidin-3-one]", "pIC50": 9.10}
{"smiles": "COC[C@@H]1CN(c2ccc(Nc3ncc4c(=O)n(C(C)C)n(-c5cccc(N=S(C)(C)=O)n5)c4n3)cc2)CCO1", "note": "[Example 53, 1-(6-{[Dimethyl(oxo)-λ^6-sulfanylidene]amino}pyridin-2-yl)-6-({4-[(2S)-2-(methoxymethyl)morpholin-4-yl]phenyl}amino)-2-(propan-2-yl)-1H,2H,3H-pyrazolo[3,4-d]pyrimidin-3-one]", "pIC50": 9.30}
{"smiles": "CC(C)n1c(=O)c2cnc(Nc3ccc(F)cc3)nc2n1-c1cccc(N=S2(=O)CCCC2)n1", "note": "[Example 55, 6-[(4-Fluorophenyl)amino]-1-{6-[(1-oxo-1λ^6-thiolan-1-ylidene)amino]pyridin-2-yl}-2-(propan-2-yl)-1H,2H,3H-pyrazolo[3,4-d]pyrimidin-3-one]", "pIC50": 7.88}
{"smiles": "CC(C)n1c(=O)c2cnc(Nc3cnn(C)c3)nc2n1-c1cccc(N=S2(=O)CCCC2)n1", "note": "[Example 56, 6-[(1-Methyl-1H-pyrazol-4-yl)amino]-1-{6-[(1-oxo-1λ^6-thiolan-1-ylidene)amino]pyridin-2-yl}-2-(propan-2-yl)-1H,2H,3H-pyrazolo[3,4-d]pyrimidin-3-one]", "pIC50": 7.73}
{"smiles": "CC(C)n1c(=O)c2cnc(Nc3ccc(N(C)C)cc3)nc2n1-c1cccc(N=S(C)(C)=O)n1", "note": "[Example 58, 1-(6-{[Dimethyl(oxo)-λ^6-sulfanylidene]amino}pyridin-2-yl)-6-{[4-(dimethylamino)phenyl]amino}-2-(propan-2-yl)-1H,2H, 3H-pyrazolo[3,4-d]pyrimidin-3-one]", "pIC50": 9.40}
{"smiles": "CC(C)n1c(=O)c2cnc(Nc3ccc(N4CCNCC4)cc3)nc2n1-c1cccc(N=S2(=O)CCCC2)n1", "note": "[Example 59, 1-{6-[(1-Oxo-1λ^6-thiolan-1-ylidene)amino]pyridin-2-yl}-6-{[4-(piperazin-1-yl)phenyl]amino}-2-(propan-2-yl)-1H,2H,3H-pyrazolo[3,4-d]pyrimidin-3-one]", "pIC50": 8.92}
{"smiles": "CC(C)n1c(=O)c2cnc(N(c3ccc(C#N)cc3)c3ccc(C#N)cc3)nc2n1-c1cccc(N=S(C)(C)=O)n1", "note": "[Example 60, 4-[(4-Cyanophenyl)[1-(6-{[dimethyl(oxo)-λ^6-sulfanylidene]amino}pyridin-2-yl)-3-oxo-2-(propan-2-yl)-1H,2H,3H-pyrazolo[3,4-d]pyrimidin-6-yl]amino]benzonitrile]", "pIC50": 6.12}
